In the ASAP Discovery antiviral challenge data (2025):
≈ marks a conversion by molar mass, not a printed value. Where “and” joins values, the source holds several entries; their conditions need not be identical. Identical values can stand only once.

How the values were obtained:
[1] = human; liver_microsomes
[2] = mouse; liver_microsomes
[3] = not given; remark: listed apart in the source
[4] = mdck_mdr1

SMILES | microsomal CLint [1] | microsomal CLint [2] | solubility kinetic | logD [3] | Papp [4]
CC(C)(C)[C@H](Nc1ncnc2[nH]c(-c3cnn(CC(N)=O)c3)cc12)c1ccc2c(c1)OCCO2 (single isomer, unassigned) | 153 µL/min/mg and 100 µL/min/mg | 44 µL/min/mg and 39 µL/min/mg | 89 µM and 104 µM | 3 and 3.1 | 0.364 ×10⁻⁶ cm/s and 1.01 ×10⁻⁶ cm/s
CC(C)[C@H](Nc1ncnc2[nH]c(-c3cnn(C)c3)cc12)c1ccc2c(c1)S(=O)(=O)CCC2 (single isomer, unassigned) | 169 µL/min/mg and 405 µL/min/mg | 255 µL/min/mg and 140 µL/min/mg | 111 µM (≈ 50 µg/mL) | 2.9 and 3.2 | 1.18 ×10⁻⁶ cm/s and 1.5 ×10⁻⁶ cm/s
CC(C)[C@H](Nc1ncnc2[nH]c(-c3cnn(C)c3C#N)cc12)c1ccc2c(n1)NC(=O)CO2 (single isomer, unassigned) | 137 µL/min/mg and 51 µL/min/mg | 131 µL/min/mg and 189 µL/min/mg | 28 µM (≈ 12.4 µg/mL) | 3.7 | 9.35 ×10⁻⁶ cm/s and 9.64 ×10⁻⁶ cm/s
CC(C)[C@H](Nc1ncnc2[nH]c(-c3cnn(CC(N)=O)c3)cc12)c1ccc2c(c1)S(=O)(=O)CCC2 (single isomer, unassigned) | 240 µL/min/mg and 115 µL/min/mg | 39 µL/min/mg and 96 µL/min/mg | 338 µM and 335 µM | 2.1 and 2 | 1.98 ×10⁻⁶ cm/s and 0.719 ×10⁻⁶ cm/s
CC(C)[C@H](Nc1ncnc2[nH]c(-c3cnn(CC(N)=O)c3)cc12)c1ccc2c(n1)OCCO2 (single isomer, unassigned) | 12 µL/min/mg and 18 µL/min/mg | 5 µL/min/mg and 9 µL/min/mg | 377 µM and 395 µM | 2.3 and 2.4 | 1.27 ×10⁻⁶ cm/s and 0.47 ×10⁻⁶ cm/s
CNC(=O)c1cc2c(N[C@H](c3ccc4c(c3)NC(=O)CO4)C(C)C)ncnc2[nH]1 (single isomer, unassigned) | 175 µL/min/mg | 33 µL/min/mg | 380 µM (≈ 150 µg/mL) | 2.9 | 1.21 ×10⁻⁶ cm/s
COCCNC(=O)[C@H](Nc1ccc2c(c1)CNC2)c1cc(Cl)cc(C2CC2)c1 (single isomer, unassigned) | 19.7 µL/min/mg | 11.7 µL/min/mg | 320 µM (≈ 128 µg/mL) | 1 | 1.4 ×10⁻⁶ cm/s
COc1ccc([C@H](Cc2nnn[nH]2)NC(=O)c2ncnc3[nH]ccc23)cc1 (single isomer, unassigned) | 2 µL/min/mg | 7 µL/min/mg | 367 µM (≈ 134 µg/mL) | -0.5 | 1.07 ×10⁻⁶ cm/s
C[C@H](C(=O)O)[C@@H](NC(=O)c1ncnc2[nH]ccc12)c1ccc(Br)cc1 (single isomer, unassigned) | 3 µL/min/mg | 4 µL/min/mg | 358 µM (≈ 144 µg/mL) | 0.6 | 0.682 ×10⁻⁶ cm/s
Cc1nn(C)cc1-c1cc2c(N[C@H](c3ccc4c(c3)S(=O)(=O)CCC4)C(C)C)ncnc2[nH]1 (single isomer, unassigned) | 273 µL/min/mg and 251 µL/min/mg | 202 µL/min/mg and 390 µL/min/mg | 65 µM and 63 µM | 3.1 and 3.4 | 4.36 ×10⁻⁶ cm/s and 3.69 ×10⁻⁶ cm/s
Cn1ncc(-c2cc3c(N[C@H](c4ccc5c(n4)OCCO5)C(C)(C)C)ncnc3[nH]2)c1C#N (single isomer, unassigned) | 283 µL/min/mg | 226 µL/min/mg | 24 µM (≈ 10.7 µg/mL) | 3.3 | 14 ×10⁻⁶ cm/s
